The species named for assay [1] is Mus musculus. Put plainly: animal or person. The following applies: DBA, Tail, iv.
Description: Analgesic activity in iv dosed DBA mouse by tail flick assay
The subject of assay [2] is Mus musculus. The assay can be described thus: Analgesic activity in iv dosed DBA mouse by tail clip assay. It counts as functional.
The species entered for assay [3] is Mus musculus. Put plainly: animal or person. The following applies: DBA, iv.
Description: Analgesic activity in iv dosed DBA mouse by writhing assay
Assay [4] is filed under the species Mus musculus. The assay can be described thus: animal or person. As to conditions: DBA, iv. This is another data set of the same source.
Description: Analgesic activity in iv dosed DBA mouse by hot plate assay
For assay [5], the species on record is Mus musculus. Put plainly: animal or person. The following applies: SHR, iv.
Description: Analgesic activity in iv dosed SHR mouse by writhing assay
For assay [6], the species on record is Mus musculus. Put plainly: animal or person. As to conditions: SHR, Tail, iv.
Description: Analgesic activity in iv dosed SHR mouse by tail flick assay
For assay [7], the species on record is Mus musculus. The assay can be described thus: animal or person. The following applies: SHR, iv. The source holds these as a separate data set.
Description: Analgesic activity in iv dosed SHR mouse by hot plate assay
Assay [8] is filed under the species Mus musculus. Put plainly: animal or person. The following applies: SHR, iv. This is another data set of the same source.
Description: Analgesic activity in iv dosed SHR mouse by tail clip assay

As for `CO[C@@]12CC[C@@]3(C[C@@H]1[C@](C)(O)C(C)(C)C)[C@H]1Cc4ccc(O)c5c4[C@@]3(CCN1CC1CC1)[C@H]2O5` [BUPRENORPHINE], the ED50 (in general, the dose at which the effect has come halfway, by size or by number of responders) in the assay filed under Mus musculus [1] was found to be 0.312 mg/kg; in the assay listed under Mus musculus [3], 0.0295 mg/kg; in the assay listed under Mus musculus [4], 0.195 mg/kg; in the assay listed under Mus musculus [5], 0.0223 mg/kg; in the assay listed under Mus musculus [6], 0.0404 mg/kg; in the assay filed under Mus musculus [7], 0.0233 mg/kg. For the same compound, in the assay listed under Mus musculus [8], the ED50 stood at 0.0466 mg/kg. For the same compound, the Efficacy with Mus musculus [2] is reported as 46.7%.
